The values that follow are results of earlier work, collected in PubChem BioAssay AID1259409 (Chemical Carcinogenesis Research Information System (CCRIS), 2018).

The data set has as its system rodent chemically induced tumor inhibition, incidence and multiplicity. In words: CCRIS tumor inhibitor studies. Conditions: Route [Inhibitor]: ORAL. The text has this: The CCRIS database contains chemical records with carcinogenicity, mutagenicity, tumor promotion, and tumor inhibition test results. It was developed by the National Cancer Institute (NCI). Data are derived from studies cited in primary journals, current awareness tools, NCI reports, and other sources. Test results have been reviewed by experts in carcinogenesis and mutagenesis.
CCRIS provides historical information from the years 1985 - 2011. It is no longer updated.
This is an archive assay for CCRIS tumor inhibitor studies.

Regarding `S=C=NCCc1ccccc1`, the “tumour outcome (control, treated, inhibition, significance)” value is 4/40 (10%), 4/30 (13%), -30%, not significant (Carcinogen: N-BUTYL-N(4-HYDROXYBUTYL)NITROSAMINE (3817-11-6), Dose [Inhibitor]: 0.5 UMOL/G IN DIET BEGINNING 1 WK BEFORE CARCINOGEN EXPOSURE (STUDY DURATION: 16 WK), Species: RAT, Strain/Sex: WISTAR/MALE, Target Tissue: Type of Lesion: URINARY BLADDER: TRANSITIONAL CELL CARCINOMA, Dose [Carcinogen]: 0.025% IN DRINKING WATER FOR 15 WK, Promoter: NONE USED); 100%, 13%, 87%, not calculated (Carcinogen: N-NITROSOBENZYLMETHYLAMINE, 937-40-6, Dose [Inhibitor]: 0, 3 UMOL/G DIET BEGINNING 2 WK PRIOR TO CARCINOGEN TREATMENT AND CONTINUING FOR 8 WK POST CARCINOGEN TREATMENT (STUDY D, Species: RAT, Strain/Sex: F344/MALE, Target Tissue: Type of Lesion: ESOPHAGUS: TUMOR, Dose [Carcinogen]: 0.5 MG/KG 1/WK FOR 15 WK, Promoter: NONE USED); 100%, 13%, 87%, not calculated (Carcinogen: N-NITROSOBENZYLMETHYLAMINE, 937-40-6, Dose [Inhibitor]: 0, 3 UMOL/G IN DIET BEGINNING 2 WK PRIOR TO CARCINOGEN TREATMENT AND CONTINUING FOR DURATION OF STUDY (STUDY DURATION: 2, Species: RAT, Strain/Sex: F344/MALE, Target Tissue: Type of Lesion: ESOPHAGUS: TUMORS, Dose [Carcinogen]: 0.5 MG/KG BW IN 0.1 ML OF DMSO 1/WK FOR 15 WK, Promoter: NONE USED); 100%, 0%, 100%, not calculated (Carcinogen: N-NITROSOBENZYLMETHYLAMINE, 937-40-6, Dose [Inhibitor]: 0, 6 UMOL/G DIET BEGINNING 2 WK PRIOR TO CARCINOGEN TREATMENT AND CONTINUING FOR 8 WK POST CARCINOGEN TREATMENT (STUDY D, Species: RAT, Strain/Sex: F344/MALE, Target Tissue: Type of Lesion: ESOPHAGUS: TUMOR, Dose [Carcinogen]: 0.5 MG/KG 1/WK FOR 15 WK, Promoter: NONE USED); 15/15 (100%), 0/15 (0%), 100%, not calculated (Carcinogen: N-NITROSOBENZYLMETHYLAMINE, 937-40-6, Dose [Inhibitor]: 0, 6 UMOL/G IN DIET BEGINNING 2 WK PRIOR TO CARCINOGEN TREATMENT AND CONTINUING FOR DURATION OF STUDY (STUDY DURATION: 2, Species: RAT, Strain/Sex: F344/MALE, Target Tissue: Type of Lesion: ESOPHAGUS: TUMORS, Dose [Carcinogen]: 0.5 MG/KG BW IN 0.1 ML OF DMSO 1/WK FOR 15 WK, Promoter: NONE USED); 19/25 (76.0%), 20/28 (71.4%), 6%, not significant (Carcinogen: N-NITROSOBIS(2-OXOPROPYL)AMINE [60599-38-4], Dose [Inhibitor]: 3 UMOL IN DIET FOR 49 WK BEGINNING 2 WK POST LAST CARCINOGEN DOSE (STUDY DURATION: 52 WK), Species: HAMSTER, Strain/Sex: SYRIAN/FEMALE, Target Tissue: Type of Lesion: LIVER: CHOLANGIOCELLAR ADENOMA, Dose [Carcinogen]: 20 MG/KG BW 1X/WK FOR 2 WK (STUDY DURATION: 52 WK), Promoter: NONE). Further, the “tumour outcome (control, treated, inhibition, significance)” value is, setting by setting: (Carcinogen: N-NITROSOBIS(2-OXOPROPYL)AMINE [60599-38-4], Dose [Inhibitor]: 3 UMOL IN DIET FOR 49 WK BEGINNING 2 WK POST LAST CARCINOGEN DOSE (STUDY DURATION: 52 WK), Species: HAMSTER, Strain/Sex: SYRIAN/FEMALE, Target Tissue: Type of Lesion: LIVER: CHOLANGIOCELLULAR ADENOMA, Dose [Carcinogen]: 20 MG/KG BW 1X/WK FOR 2 WK (STUDY DURATION: 52 WK), Promoter: NONE) 19/25 (76.0%), 23/28 (82.1%), -8%, not significant; (Carcinogen: N-NITROSOBIS(2-OXOPROPYL)AMINE [60599-38-4], Dose [Inhibitor]: 3 UMOL IN DIET FOR 49 WK BEGINNING 2 WK POST LAST CARCINOGEN DOSE (STUDY DURATION: 52 WK), Species: HAMSTER, Strain/Sex: SYRIAN/FEMALE, Target Tissue: Type of Lesion: LIVER: HEPATOCELLULAR ADENOMA, Dose [Carcinogen]: 20 MG/KG BW 1X/WK FOR 2 WK (STUDY DURATION: 52 WK), Promoter: NONE) 18/25 (72.0%), 16/28 (57.1%), 21%, not significant.
